In PubChem BioAssay (NCI) one finds GI50 and TGI data, which are given here for 16 molecules.

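Compound exposure: 48 hours, 5 concentrations, 96-well plates. Abbreviation: GI50, concentration required for 50% inhibition of growth. At the TGI there is no net growth.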

Among the test systems are BT-549 breast; HL-60(TB) leukemia; OVCAR-3 ovarian; NCI-H226 lung; NCI-H522 lung; MDA-MB-231 breast; NCI/ADR-RES ovarian; NCI-H460 lung; A498 renal; T-47D breast.
What all share (experiment): NCI tumour cell line growth inhibition, 48 h

For `Cc1ccc(C2=C(c3ccccc3)C(c3ccccc3)Oc3ccc(C)cc32)cc1` (stereo not given), the GI50 was 4.76 µM with BT-549 breast; 11 µM with HL-60(TB) leukemia; 12.4 µM in the test with OVCAR-3 ovarian; 15.8 µM in the test on NCI-H226 lung; 2.28 µM with NCI-H522 lung; 13 µM in the test on MDA-MB-231 breast. In addition, the GI50 is 2.18 µM in the test with NCI/ADR-RES ovarian, 7.1 µM in the test with NCI-H460 lung and 1.56 µM with A498 renal. In addition, the TGI worked out at 20.4 µM in the test on BT-549 breast; 40.7 µM in the test with HL-60(TB) leukemia; 32.7 µM in the test on OVCAR-3 ovarian; 37.9 µM with NCI-H226 lung; 5.63 µM in the test with NCI-H522 lung; 30.5 µM in the test with MDA-MB-231 breast. Moreover, the TGI amounted to 5.35 µM in the test on NCI/ADR-RES ovarian, 39.9 µM with NCI-H460 lung and 5.32 µM with A498 renal.
As for `Clc1ccc2nc(-c3ccccc3)nc(Cl)c2c1`, the TGI is 31.1 µM with HL-60(TB) leukemia; above 100 µM with OVCAR-3 ovarian; above 100 µM in the test with NCI-H226 lung; above 100 µM in the test on NCI-H460 lung; above 100 µM with A498 renal.
As to `O=c1c(NO)c([N+](=O)[O-])cnn1-c1ccccc1`, the TGI in the test on BT-549 breast worked out at 2.93 µM; in the test with HL-60(TB) leukemia it was 3.14 µM; with T-47D breast it was 3.79 µM; with OVCAR-3 ovarian, 5.76 µM; in the test on NCI-H226 lung, 16.5 µM; in the test on NCI-H522 lung, 4.86 µM. The results for the TGI in the test with NCI-H460 lung and with A498 renal were 13.1 µM and 50 µM, respectively.
On to `CC(CNCCCNCCNCCCNCO)[N+](=O)[O-]` (stereo not given), for which the TGI in the test with HL-60(TB) leukemia worked out at 19.1 µM; in the test with OVCAR-3 ovarian, 30.4 µM; with NCI-H460 lung, 32.3 µM; with A498 renal, 32.3 µM.
`O=S(=O)([O-])[O-].[Cl-].[NH2-].[NH2-].[NH2-].[NH2-].[Ru+3].c1ccncc1`: the TGI in the test on HL-60(TB) leukemia, in the test on OVCAR-3 ovarian, in the test on NCI-H226 lung, in the test on NCI-H522 lung, in the test on NCI-H460 lung and in the test with A498 renal was above 100 µM in each case.
As to `Cc1cccc(N2C(=O)C(=O)C(c3nc4ccccc4s3)/C(=N/NC(=S)NN)C2=O)c1C` (stereo not given), the TGI in the test on OVCAR-3 ovarian, in the test with NCI-H226 lung, in the test on NCI-H522 lung, in the test on NCI-H460 lung and in the test on A498 renal was above 100 µM in each case.
As for `CCOC(=O)C1=C(C)N(NC(N)=O)C(C)(O)C12CCOC2=O` (stereo not given), the TGI in the test with HL-60(TB) leukemia, with OVCAR-3 ovarian, in the test on NCI-H226 lung, with NCI-H522 lung, with NCI-H460 lung and in the test with A498 renal was above 100 µM throughout.
For `CCCCCCCCCCCCCCCC(=O)OCC1OC(OC)C2NP(=O)(N(CCCl)CCCl)OC1C2O` (stereo not given), the TGI in the test with BT-549 breast turned out to be 5.96 µM; in the test with HL-60(TB) leukemia it was 4.48 µM; with OVCAR-3 ovarian it was 10.7 µM; in the test with NCI-H226 lung, 32.2 µM; in the test with NCI-H522 lung it was 3.42 µM; in the test with NCI-H460 lung it was 14.5 µM. Further, the TGI with A498 renal was determined as 34.7 µM.
With `O=[N+]([O-])c1ccc(/C=C/c2csnn2)cc1`, the TGI with HL-60(TB) leukemia, with OVCAR-3 ovarian, in the test with NCI-H226 lung, with NCI-H522 lung and in the test with NCI-H460 lung was above 100 µM throughout.
Consider `COC(=O)N/N=C(/CCC(=O)Nc1ccc(C)c(C)c1)CC(=O)C(C)(C)C`, for which the TGI in the test on HL-60(TB) leukemia, in the test with OVCAR-3 ovarian, in the test with NCI-H226 lung, in the test with NCI-H522 lung and in the test on NCI-H460 lung was above 100 µM in each case.
Consider `O=[N+]([O-])c1ccccc1C=NC12CC3CC(CC(C3)C1)C2`, for which the TGI in the test with HL-60(TB) leukemia was 57.1 µM; with OVCAR-3 ovarian it was above 100 µM; in the test with NCI-H226 lung it was above 100 µM; in the test with NCI-H522 lung, above 100 µM; in the test with NCI-H460 lung, above 100 µM; with A498 renal it was above 100 µM.
For the molecule `O=[N+]([O-])c1cc(Cl)ccc1OCc1ccccc1`, the TGI in the test on HL-60(TB) leukemia, in the test with OVCAR-3 ovarian, with NCI-H460 lung and with A498 renal was above 100 µM each time.
On to `COc1cc2c(cc1OC)NC(=O)NC(Cc1ccc3c(c1)OCO3)CC2` (stereo not given), for which the TGI with HL-60(TB) leukemia was above 100 µM; with OVCAR-3 ovarian, above 100 µM; in the test on NCI-H522 lung, 76.2 µM; in the test on NCI-H460 lung, above 100 µM.
On to `CCOC(=O)c1c(C)nc2c(c1N)CC(=O)N2CCc1ccccc1`, for which the GI50 with HL-60(TB) leukemia was 0.374 µM; with T-47D breast it was 0.962 µM; in the test with OVCAR-3 ovarian it was 0.412 µM; with NCI-H226 lung, 18.7 µM; in the test on NCI-H522 lung, 0.283 µM; in the test with MDA-MB-231 breast, 0.896 µM. For the same molecule, the GI50 in the test with NCI/ADR-RES ovarian is 2.05 µM; in the test on NCI-H460 lung, 1.77 µM; in the test with A498 renal it was 3.2 µM. Moreover, the TGI with HL-60(TB) leukemia is 13.1 µM; in the test with T-47D breast, 22.9 µM; in the test with OVCAR-3 ovarian, 13.3 µM; in the test with NCI-H226 lung, 69 µM; in the test on NCI-H522 lung, 1.11 µM; with MDA-MB-231 breast, 14 µM. The TGI in the test on NCI/ADR-RES ovarian was determined as 27.2 µM; with NCI-H460 lung, 14.1 µM; in the test with A498 renal it was 10.8 µM.
With `CC(=O)C1=C(C)N(C)C2(O)C=CC(=O)C3=C(O)c4ccccc4C(=O)C312` (stereo not given), the GI50 with BT-549 breast was 13.6 µM; in the test with HL-60(TB) leukemia it was above 100 µM; in the test with NCI-H226 lung, 16 µM; in the test with NCI-H522 lung it was 23.8 µM; in the test on MDA-MB-231 breast, 4.96 µM; in the test on NCI/ADR-RES ovarian it was 5.49 µM. In addition, the GI50 in the test with NCI-H460 lung was 10.6 µM; in the test with A498 renal, 0.0524 µM. Also, the TGI was 27.9 µM in the test on BT-549 breast; above 100 µM in the test on HL-60(TB) leukemia; 31.9 µM in the test with NCI-H226 lung; above 100 µM with NCI-H522 lung; 21.6 µM with MDA-MB-231 breast; above 100 µM in the test with NCI/ADR-RES ovarian. The TGI in the test with NCI-H460 lung was found to be 42 µM; with A498 renal, 15.2 µM.
Take `CC1(C)C(=O)/C=C\C(=O)C(C)(C)C(=O)/C=C\C(=O)C(C)(C)C(=O)/C=C\C(=O)C(C)(C)C(=O)/C=C\C1=O`: the TGI with HL-60(TB) leukemia is 10.4 µM; with T-47D breast, above 100 µM; in the test with OVCAR-3 ovarian it was 48.7 µM; in the test with NCI-H226 lung, above 86.5 µM; in the test with NCI-H522 lung, 20.2 µM; in the test with MDA-MB-231 breast it was above 100 µM. The TGI with NCI-H460 lung and with A498 renal was above 100 µM each time.
